Experimental data: ChEMBL document CHEMBL5291721, “A preclinical secondary pharmacology resource illuminates target-adverse drug reaction associations of marketed drugs” (Nat Commun, 2023)

Experiments:
[1] = target: T1, Peroxisome proliferator-activated receptor gamma (Homo sapiens, UniProt P37231); assay type: functional
T1 sequence (P37231 whole entry): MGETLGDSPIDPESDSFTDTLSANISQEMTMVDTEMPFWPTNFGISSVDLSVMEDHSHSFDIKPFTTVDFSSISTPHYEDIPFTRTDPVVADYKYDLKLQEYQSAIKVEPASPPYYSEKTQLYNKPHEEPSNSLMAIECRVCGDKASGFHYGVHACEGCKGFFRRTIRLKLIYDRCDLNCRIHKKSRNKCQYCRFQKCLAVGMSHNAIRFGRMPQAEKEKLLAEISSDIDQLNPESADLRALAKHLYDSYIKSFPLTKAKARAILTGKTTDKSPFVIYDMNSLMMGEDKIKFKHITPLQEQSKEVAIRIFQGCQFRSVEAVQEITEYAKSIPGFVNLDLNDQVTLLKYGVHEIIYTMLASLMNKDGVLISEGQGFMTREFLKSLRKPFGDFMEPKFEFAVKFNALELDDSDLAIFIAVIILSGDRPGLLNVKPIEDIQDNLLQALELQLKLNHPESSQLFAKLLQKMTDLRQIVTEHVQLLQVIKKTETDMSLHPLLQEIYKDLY

[2] = target: T1, Peroxisome proliferator-activated receptor gamma; assay type: functional; remark: listed apart in the source
[3] = target: Receptor tyrosine-protein kinase erbB-2 (Homo sapiens, UniProt P04626); assay type: functional
[4] = target: Vascular endothelial growth factor receptor 2 (Homo sapiens, UniProt P35968); assay type: functional
Adenosine receptor A3 = target: T2, Adenosine receptor A3 (Homo sapiens, UniProt P0DMS8)
T2 sequence (P0DMS8 whole entry): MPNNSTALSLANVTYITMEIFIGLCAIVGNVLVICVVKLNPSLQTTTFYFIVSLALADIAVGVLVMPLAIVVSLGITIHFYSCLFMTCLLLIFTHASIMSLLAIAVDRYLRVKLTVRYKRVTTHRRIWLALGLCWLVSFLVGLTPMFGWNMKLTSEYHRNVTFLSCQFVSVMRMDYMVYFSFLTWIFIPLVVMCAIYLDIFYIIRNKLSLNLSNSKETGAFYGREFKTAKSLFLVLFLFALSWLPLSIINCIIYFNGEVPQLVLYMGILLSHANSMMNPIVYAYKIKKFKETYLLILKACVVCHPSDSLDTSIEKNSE

[5] = target: T3, Muscarinic acetylcholine receptor M1 (Homo sapiens, UniProt P11229); assay type: functional, cell-based
T3 sequence (P11229 whole entry): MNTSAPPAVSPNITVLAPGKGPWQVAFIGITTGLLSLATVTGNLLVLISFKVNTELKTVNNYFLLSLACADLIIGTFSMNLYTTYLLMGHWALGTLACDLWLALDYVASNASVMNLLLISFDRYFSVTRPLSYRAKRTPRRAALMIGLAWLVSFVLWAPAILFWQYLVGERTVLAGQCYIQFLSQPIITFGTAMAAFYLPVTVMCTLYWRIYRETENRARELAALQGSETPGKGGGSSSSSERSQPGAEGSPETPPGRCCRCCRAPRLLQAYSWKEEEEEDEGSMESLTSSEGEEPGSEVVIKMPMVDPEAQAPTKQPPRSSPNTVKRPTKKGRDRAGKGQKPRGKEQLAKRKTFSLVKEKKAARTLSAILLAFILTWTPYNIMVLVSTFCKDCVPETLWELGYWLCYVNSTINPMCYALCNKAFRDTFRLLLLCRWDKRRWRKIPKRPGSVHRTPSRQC

[6] = target: T3, Muscarinic acetylcholine receptor M1; assay type: functional, cell-based; remark: listed apart in the source
[7] = target: Gamma-aminobutyric acid receptor subunit alpha-1/alpha-2/beta-2/gamma-2 (Homo sapiens, UniProt P14867+P18507+P47869+P47870); assay type: protein-complex assay
[8] = target: T4, 5-hydroxytryptamine receptor 1A (Homo sapiens, UniProt P08908)
T4 sequence (P08908 whole entry): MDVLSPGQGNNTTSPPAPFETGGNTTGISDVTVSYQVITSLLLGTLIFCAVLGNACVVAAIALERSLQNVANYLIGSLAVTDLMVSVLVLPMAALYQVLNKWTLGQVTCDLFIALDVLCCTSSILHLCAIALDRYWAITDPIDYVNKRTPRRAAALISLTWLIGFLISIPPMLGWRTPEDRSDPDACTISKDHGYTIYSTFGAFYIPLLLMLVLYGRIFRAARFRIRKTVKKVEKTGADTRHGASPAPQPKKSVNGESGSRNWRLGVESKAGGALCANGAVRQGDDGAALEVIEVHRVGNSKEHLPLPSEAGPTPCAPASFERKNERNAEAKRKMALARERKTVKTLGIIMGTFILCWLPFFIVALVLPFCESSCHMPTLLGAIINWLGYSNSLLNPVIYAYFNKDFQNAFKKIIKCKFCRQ

[9] = target: 5-hydroxytryptamine receptor 2B (Homo sapiens, UniProt P41595); assay type: functional, cell-based
Mu-type opioid receptor = Mu-type opioid receptor (Homo sapiens, UniProt P35372)
[10] = target: Prostaglandin G/H synthase 1 (Homo sapiens, UniProt P23219); assay type: functional
[11] = target: Sodium-dependent serotonin transporter (Homo sapiens, UniProt P31645)
Histamine H1 receptor = Histamine H1 receptor (Homo sapiens, UniProt P35367); assay type: functional, cell-based
[12] = target: Voltage-dependent L-type calcium channel subunit alpha-1C (Homo sapiens, UniProt Q13936); assay type: functional, cell-based
[13] = target: T5, Gamma-aminobutyric acid receptor subunit alpha-1/alpha-2/beta-2/gamma-2 (Homo sapiens, UniProt P14867+P47870+P18507+P47869); assay type: functional, cell-based
[14] = target: T5, Gamma-aminobutyric acid receptor subunit alpha-1/alpha-2/beta-2/gamma-2; assay type: functional, cell-based; remark: listed apart in the source
[15] = target: T5, Gamma-aminobutyric acid receptor subunit alpha-1/alpha-2/beta-2/gamma-2; assay type: protein-complex assay
D(1A) dopamine receptor = D(1A) dopamine receptor (Homo sapiens, UniProt P21728)
Note: assay procedure not described here.

T5 sequence (P14867 whole entry): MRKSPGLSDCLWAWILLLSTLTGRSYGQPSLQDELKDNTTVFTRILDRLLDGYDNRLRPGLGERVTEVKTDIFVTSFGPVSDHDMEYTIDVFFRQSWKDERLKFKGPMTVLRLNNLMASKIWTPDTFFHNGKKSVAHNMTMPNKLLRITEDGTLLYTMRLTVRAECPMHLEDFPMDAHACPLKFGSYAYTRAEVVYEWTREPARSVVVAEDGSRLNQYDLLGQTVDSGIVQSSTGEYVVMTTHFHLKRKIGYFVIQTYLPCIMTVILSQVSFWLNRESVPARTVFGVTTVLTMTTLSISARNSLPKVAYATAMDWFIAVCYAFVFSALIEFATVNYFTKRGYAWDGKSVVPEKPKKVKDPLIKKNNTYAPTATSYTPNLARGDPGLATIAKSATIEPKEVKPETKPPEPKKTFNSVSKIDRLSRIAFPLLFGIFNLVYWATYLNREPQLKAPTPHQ
T5 sequence (P47870 whole entry): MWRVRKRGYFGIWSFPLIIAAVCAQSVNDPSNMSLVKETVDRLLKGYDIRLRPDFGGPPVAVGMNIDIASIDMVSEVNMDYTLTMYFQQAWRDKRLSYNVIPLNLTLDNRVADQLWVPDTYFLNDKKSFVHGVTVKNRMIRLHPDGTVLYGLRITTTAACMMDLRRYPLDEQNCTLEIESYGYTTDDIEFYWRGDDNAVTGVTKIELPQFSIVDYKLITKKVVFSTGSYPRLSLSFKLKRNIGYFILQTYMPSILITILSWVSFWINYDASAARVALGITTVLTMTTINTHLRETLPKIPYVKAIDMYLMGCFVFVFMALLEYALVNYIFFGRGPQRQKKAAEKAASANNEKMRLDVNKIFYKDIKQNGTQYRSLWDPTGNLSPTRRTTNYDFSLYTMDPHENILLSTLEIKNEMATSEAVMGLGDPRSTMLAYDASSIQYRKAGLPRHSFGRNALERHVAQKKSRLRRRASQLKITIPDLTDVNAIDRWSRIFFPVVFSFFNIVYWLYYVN
T5 sequence (P18507 whole entry): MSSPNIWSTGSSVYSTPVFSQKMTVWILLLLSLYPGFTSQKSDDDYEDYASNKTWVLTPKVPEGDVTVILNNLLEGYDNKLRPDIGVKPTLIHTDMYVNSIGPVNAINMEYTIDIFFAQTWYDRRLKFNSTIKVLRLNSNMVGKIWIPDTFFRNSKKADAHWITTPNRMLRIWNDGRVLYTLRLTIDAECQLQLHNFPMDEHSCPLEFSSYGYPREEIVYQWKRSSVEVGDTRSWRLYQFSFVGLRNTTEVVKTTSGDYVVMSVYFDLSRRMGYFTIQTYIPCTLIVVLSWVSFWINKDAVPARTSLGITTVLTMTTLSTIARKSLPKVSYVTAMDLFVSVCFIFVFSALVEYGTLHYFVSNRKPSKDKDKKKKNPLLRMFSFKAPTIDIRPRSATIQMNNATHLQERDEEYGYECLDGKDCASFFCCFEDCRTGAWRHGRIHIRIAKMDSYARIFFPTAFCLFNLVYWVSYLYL
T5 sequence (P47869 whole entry): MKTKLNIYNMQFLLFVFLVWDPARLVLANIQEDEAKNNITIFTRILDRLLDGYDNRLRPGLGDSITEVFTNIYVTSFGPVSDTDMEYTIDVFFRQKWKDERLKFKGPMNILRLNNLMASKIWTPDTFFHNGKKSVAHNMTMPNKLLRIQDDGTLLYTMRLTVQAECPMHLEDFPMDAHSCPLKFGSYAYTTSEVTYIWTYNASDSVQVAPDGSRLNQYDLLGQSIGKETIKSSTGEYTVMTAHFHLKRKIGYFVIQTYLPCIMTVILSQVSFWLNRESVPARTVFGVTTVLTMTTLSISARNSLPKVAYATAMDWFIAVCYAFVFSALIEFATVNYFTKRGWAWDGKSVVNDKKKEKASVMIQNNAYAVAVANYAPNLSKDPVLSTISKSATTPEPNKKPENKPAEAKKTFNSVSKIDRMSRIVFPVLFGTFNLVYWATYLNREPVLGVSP
Sequence of Voltage-dependent L-type calcium channel subunit alpha-1C (Q13936 whole entry): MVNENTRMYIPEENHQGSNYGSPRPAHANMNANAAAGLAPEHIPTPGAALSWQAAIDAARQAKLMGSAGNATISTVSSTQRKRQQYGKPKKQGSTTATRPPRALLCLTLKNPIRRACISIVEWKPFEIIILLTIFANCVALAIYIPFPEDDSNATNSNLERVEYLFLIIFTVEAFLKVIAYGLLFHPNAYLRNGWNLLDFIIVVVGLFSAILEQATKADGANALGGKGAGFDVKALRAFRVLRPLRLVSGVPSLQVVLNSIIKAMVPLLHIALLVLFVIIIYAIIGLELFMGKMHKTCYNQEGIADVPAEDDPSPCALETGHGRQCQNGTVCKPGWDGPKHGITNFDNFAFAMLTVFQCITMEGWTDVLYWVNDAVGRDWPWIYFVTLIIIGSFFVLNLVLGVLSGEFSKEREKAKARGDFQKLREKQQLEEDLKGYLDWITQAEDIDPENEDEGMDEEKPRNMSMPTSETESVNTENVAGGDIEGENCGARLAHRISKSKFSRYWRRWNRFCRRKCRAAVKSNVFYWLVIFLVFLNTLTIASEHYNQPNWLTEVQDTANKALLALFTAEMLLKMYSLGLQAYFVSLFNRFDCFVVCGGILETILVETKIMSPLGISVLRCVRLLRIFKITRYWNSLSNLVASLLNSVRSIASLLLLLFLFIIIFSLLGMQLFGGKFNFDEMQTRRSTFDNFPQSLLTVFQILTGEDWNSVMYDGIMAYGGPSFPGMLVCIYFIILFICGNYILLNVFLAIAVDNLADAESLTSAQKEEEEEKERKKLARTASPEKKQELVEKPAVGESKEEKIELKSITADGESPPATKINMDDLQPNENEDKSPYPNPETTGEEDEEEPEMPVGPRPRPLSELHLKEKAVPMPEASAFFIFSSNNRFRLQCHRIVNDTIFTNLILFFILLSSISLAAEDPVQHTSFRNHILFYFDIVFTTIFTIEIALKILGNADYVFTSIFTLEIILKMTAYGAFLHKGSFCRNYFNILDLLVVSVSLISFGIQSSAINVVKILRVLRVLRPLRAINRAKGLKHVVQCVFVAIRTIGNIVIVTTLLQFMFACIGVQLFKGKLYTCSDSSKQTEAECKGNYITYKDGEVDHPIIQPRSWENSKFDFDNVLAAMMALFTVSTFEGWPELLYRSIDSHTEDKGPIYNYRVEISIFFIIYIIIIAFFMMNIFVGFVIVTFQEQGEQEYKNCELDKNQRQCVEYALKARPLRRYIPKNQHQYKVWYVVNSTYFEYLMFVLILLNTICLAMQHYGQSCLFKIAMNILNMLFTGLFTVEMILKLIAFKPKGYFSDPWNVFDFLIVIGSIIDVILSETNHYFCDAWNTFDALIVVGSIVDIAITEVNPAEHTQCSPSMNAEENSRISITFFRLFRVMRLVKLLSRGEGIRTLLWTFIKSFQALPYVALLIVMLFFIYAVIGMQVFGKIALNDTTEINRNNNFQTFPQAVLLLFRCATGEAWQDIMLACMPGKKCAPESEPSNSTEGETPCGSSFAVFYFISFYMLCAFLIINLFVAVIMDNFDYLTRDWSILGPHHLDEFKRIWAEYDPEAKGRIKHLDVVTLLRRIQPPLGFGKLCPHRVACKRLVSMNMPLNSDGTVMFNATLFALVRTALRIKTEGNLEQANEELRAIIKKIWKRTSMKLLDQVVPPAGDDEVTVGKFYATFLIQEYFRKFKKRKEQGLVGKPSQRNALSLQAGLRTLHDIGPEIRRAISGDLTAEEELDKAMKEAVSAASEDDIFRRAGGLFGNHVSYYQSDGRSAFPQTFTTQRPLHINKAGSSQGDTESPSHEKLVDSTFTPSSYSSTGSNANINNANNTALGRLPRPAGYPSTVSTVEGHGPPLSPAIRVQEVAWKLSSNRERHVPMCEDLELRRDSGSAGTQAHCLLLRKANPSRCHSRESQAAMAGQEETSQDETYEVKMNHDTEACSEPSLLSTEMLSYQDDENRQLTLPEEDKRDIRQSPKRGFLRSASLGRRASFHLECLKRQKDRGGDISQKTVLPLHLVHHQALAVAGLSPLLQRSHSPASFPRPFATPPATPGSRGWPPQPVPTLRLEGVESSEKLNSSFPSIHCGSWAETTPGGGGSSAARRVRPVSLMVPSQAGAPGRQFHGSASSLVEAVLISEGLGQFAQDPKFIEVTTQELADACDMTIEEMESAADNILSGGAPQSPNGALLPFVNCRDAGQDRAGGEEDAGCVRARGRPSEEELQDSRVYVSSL
Sequence of Gamma-aminobutyric acid receptor subunit alpha-1/alpha-2/beta-2/gamma-2 (Homo sapiens, UniProt P14867+P18507+P47869+P47870) (P14867 whole entry): as the sequence (P14867 whole entry) above
Sequence of Gamma-aminobutyric acid receptor subunit alpha-1/alpha-2/beta-2/gamma-2 (Homo sapiens, UniProt P14867+P18507+P47869+P47870) (P47870 whole entry): as the sequence (P47870 whole entry) above
Sequence of Gamma-aminobutyric acid receptor subunit alpha-1/alpha-2/beta-2/gamma-2 (Homo sapiens, UniProt P14867+P18507+P47869+P47870) (P18507 whole entry): as the sequence (P18507 whole entry) above
Sequence of Gamma-aminobutyric acid receptor subunit alpha-1/alpha-2/beta-2/gamma-2 (Homo sapiens, UniProt P14867+P18507+P47869+P47870) (P47869 whole entry): as the sequence (P47869 whole entry) above
Sequence of Histamine H1 receptor (P35367 whole entry): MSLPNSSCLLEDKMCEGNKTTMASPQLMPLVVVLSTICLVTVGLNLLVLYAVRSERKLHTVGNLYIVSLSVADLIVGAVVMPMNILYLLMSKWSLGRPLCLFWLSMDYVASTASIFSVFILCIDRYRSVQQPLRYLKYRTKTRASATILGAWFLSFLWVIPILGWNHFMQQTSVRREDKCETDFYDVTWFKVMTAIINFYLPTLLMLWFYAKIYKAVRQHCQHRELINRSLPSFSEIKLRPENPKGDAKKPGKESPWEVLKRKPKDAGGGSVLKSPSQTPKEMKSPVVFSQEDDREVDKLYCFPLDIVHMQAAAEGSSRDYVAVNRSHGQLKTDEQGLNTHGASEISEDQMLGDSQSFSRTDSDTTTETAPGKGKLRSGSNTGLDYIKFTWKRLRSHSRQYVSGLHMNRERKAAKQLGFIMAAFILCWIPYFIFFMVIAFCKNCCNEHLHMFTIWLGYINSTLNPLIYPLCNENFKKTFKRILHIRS

Compound: Brc1c(NC2=NCCN2)ccc2nccnc12 [BRIMONIDINE]
- AC50 [1]: > 30 µM
- AC50 [2]: > 30 µM

Compound: CC(CC1c2ccccc2CCc2ccccc21)CN(C)C (centres undefined) [BUTRIPTYLINE]
- AC50 [3]: > 30 µM
- AC50 [4]: > 30 µM

Compound: CO[C@]12C[C@@H](COC(=O)c3cncc(Br)c3)CN(C)[C@@H]1Cc1cn(C)c3cccc2c13 [NICERGOLINE]
- AC50 (Adenosine receptor A3): 22.4 µM
- AC50 [5]: > 30 µM
- AC50 [6]: 1.86 µM
- AC50 [7]: > 10 µM
- AC50 [8]: 0.003 µM
- AC50 [9]: > 30 µM
- AC50 (Mu-type opioid receptor): 2.38 µM
- AC50 [10]: > 30 µM
- AC50 [11]: 7.26 µM

Compound: NC(=O)CN1CC(O)CC1=O (centres undefined) [OXIRACETAM]
- AC50 (Histamine H1 receptor): > 30 µM

Compound: THIMEROSAL
- AC50 [12]: > 50 µM
- AC50 [13]: > 30 µM
- AC50 [14]: > 30 µM
- AC50 [15]: > 30 µM
- AC50 (D(1A) dopamine receptor): 10 µM
